Data on seven molecules can be found in PMC12564639, “Discovery of a Novel Anticoagulant Cystine Knot Peptide from Spider Venom Gland Transcriptome” (International Journal of Molecular Sciences, 2025).

For series [1] the following is noted: ref Diapharma Group (supplier named); enzyme not given; cited from earlier work. An excerpt: Human Activated Protein C (APC-1.0) was purchased from Enzyme Research Laboratories, Inc., South Bend, IN, USA. […] Activated Partial Thromboplastin Time (APTT) Test Kit (TC0306) was bought from Senkey Biotechnology Co., Ltd., Kunming, China. Prothrombin Time (PT) Test Kit (GMS10176) was purchased from GENMED Scientifics Inc., Shanghai, China. Streptavidin (SA) Biosensors (18-5019) were obtained from Sartorius AG, Göttingen, Lower Sa ...

Series [2] relates to mouse tail bleeding. The series is described as follows: Tail bleeding time. To be noted: heparin sodium 1000 U/kg i.v., 10 min after administration; n = 6; vehicle 89.8 s. Type of series: in vivo, C57BL/6J mice. As to the method:
The C57BL/6J mice (male, 6–8 weeks old) were purchased from Beijing Vital River Laboratory Animal Technology Co., Ltd. (Beijing, China). All animal studies were performed under the approval of the Ethics Committee of the Laboratory Animal Welfare of the Kunming Institute of Zoology, Chinese Academy of Sciences (IACUC-RE-2025-03-010).
The mouse tail-bleeding assay was performed to evaluate the bleeding risk associated with GC38 treatment. Male C57BL/6J mice (6–8 weeks, n = 6 per group) were randomized to receive intravenous injection of PBS (negative control), GC38 (2 or 4 mg/kg in PBS), or heparin sodium (1000 U/kg, positive control). The assay was conducted 10 min after administration. Mice were anesthetized, and a 2 mm segment of the tail tip was surgically transected using a sterile scalpel. Immediately after the incision, the tail was immersed in prewarmed PBS (37 °C) to facilitate blood flow. Bleeding time was recorded from the moment of the incision until the complete cessation of bleeding (no blood flow for 60 s).

For series [3] the following is noted: venom of Eresus niger; cited from earlier work. An excerpt:
Studies have focused on the use of venom peptides for anticoagulation therapy. […] These peptides typically target key components of the coagulation cascade with high specificity, potency, and selectivity.

For series [4] the following is noted: cited from earlier work. The text has this:
(§1) Anticoagulants are standard therapy for venous thromboembolism and arterial thrombosis-mediated disorders, particularly in acute settings.

Series [5] relates to thrombin. The settings on record: cited from earlier work.
Source text: as §1

Series [6] concerns the target Human Activated Protein C (human) (UniProt P04070).

Like-named read-outs stand apart in the source and are kept apart here. Bridge positions count the residues as written; N and C are the ends. Square brackets hold non-standard residues; d marks the D form. Ends that are not written are not given here. * marks the point of attachment. pNA = O=[N+]([O-])c1ccc(N*)cc1; pGlu = O=C1CC[C@@H](C(=O)O)N1

With “[pGlu]-Pro-Arg-pNA [S-2366, Chromogenix substrate S-2366]”, in series [1], the Km was 200 µM and the kcat was 190 s⁻¹. heparin sodium [reference compound] yielded a tail bleeding time in series [2] of 127.6 s. As to phospholipase A2, the anticoagulant activity result in series [3] was “anticoagulant activity”.

On to heparin, for which the bleeding risk entry in series [4] (clinical) is “significant bleeding risks”. As to “bivalirudin: Another synthetic peptide, bivalirudin”, in series [4] (percutaneous coronary intervention (PCI), compared to heparin), the major bleeding events entry was “reduction in major bleeding events compared to heparin”. As to hirudin, in series [4] (heparin-induced thrombocytopenia (HIT) management), the bleeding risk entry is “lower bleeding risk than conventional therapies”. In series [5], the thrombin inhibition result is given as “thrombin inhibitor”.

B1: GC38 (peptide)
peptide: GCSGKGARCAPSKCCSGLSCGRHGGNMYKSCEWNWKTG
modifications: disulfide 14-31, 2-15, 9-20
Regarding B1, the APC enzymatic activity at Vmax on chromogenic substrate S-2366 (APC 0.7145 μM, S-2366 402.1 μM), GC38 0.1 to 10 μM, concentration-dependent; highest value at 10 μM in series [6] was found to be 171%.

For orientation: Km means the substrate concentration at which the rate is half of its maximum. For orientation: kcat means the number of substrate molecules converted per active site and unit of time at saturation.
